The results in this text go back to BindingDB's records for doi:10.1021/acs.jnatprod.7b00121 (Seoul National University, 2017).

The assay has as its target T1, Sortase family protein (Staphylococcus aureus, UniProt Q9S446).
T1 sequence (Q9S446 whole entry): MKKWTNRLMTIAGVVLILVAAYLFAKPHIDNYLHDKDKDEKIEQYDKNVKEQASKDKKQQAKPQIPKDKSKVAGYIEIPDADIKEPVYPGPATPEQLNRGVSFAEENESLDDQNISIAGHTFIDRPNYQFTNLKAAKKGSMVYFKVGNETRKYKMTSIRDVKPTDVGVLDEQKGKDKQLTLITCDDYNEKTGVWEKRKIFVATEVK
The assay is described as follows: Inhibition of Staphylococcus aureus ATCC 6538p SortA expressed in Escherichia coli using Dabcyl-QALPETGEE-Edans as substrate after 1 hr by fluorescence spectrophotometric method.

What is called IC50 is the midpoint of a concentration-inhibition curve. Higher therefore signals a need for much substance. Take `O=C(O)c1cc[c]([Hg][OH])cc1`: the half-inhibitory concentration (IC50) worked out at 25 µM.
